# Results published in PMC7076857 (Toxins, 2020).
# Read-outs that look alike come from different tables or passages of the source. Numbered stars: 1 amine (or outer) side, 2 acyl side, 3 side chain; on linkers, the order of the positions; unused ones are H or OH. Bridge positions count the residues as written; N and C are the ends. Square brackets hold non-standard residues; d marks the D form. Peptide text beside a SMILES is read from it. Adda = CO[C@@H](Cc1ccccc1)[C@@H](C)/C=C(C)/C=C/[C@H](N[*:1])[C@H](C)C(=O)[*:2]; dAsp(3S-Me) = C[C@H](C(=O)[*:3])[C@@H](N[*:1])C(=O)[*:2]; d(γGlu) = O=C(O)[C@@H](CCC(=O)[*:2])N[*:1]; NMeDha = C=C(NC)C(=O)O
# Tests used:
# [1] = tested on: PP2A; settings: cited from earlier work
# Excerpt: The positive and negative LC–HRMS spectra of 1 were consistent with a molecular formula of C55H77O13N7 which, together with the presence of a prominent [M + Na]^+ adduct ion, a weak neutral loss of m/z 134.0727, and the late retention time, were consistent with a non-Arg-containing MC. […] The negative ion MS/MS spectrum obtained from the FS/DIA (full scan/data indepe ...
# [2] = biological target: Protein phosphatase 2A (PP2A) (Homo sapiens, UniProt P67775); type: biochemical; settings: for IC50: read-out: IC50 (PP2A inhibition)
# Sequence of Protein phosphatase 2A (PP2A) (P67775 whole entry, looked up): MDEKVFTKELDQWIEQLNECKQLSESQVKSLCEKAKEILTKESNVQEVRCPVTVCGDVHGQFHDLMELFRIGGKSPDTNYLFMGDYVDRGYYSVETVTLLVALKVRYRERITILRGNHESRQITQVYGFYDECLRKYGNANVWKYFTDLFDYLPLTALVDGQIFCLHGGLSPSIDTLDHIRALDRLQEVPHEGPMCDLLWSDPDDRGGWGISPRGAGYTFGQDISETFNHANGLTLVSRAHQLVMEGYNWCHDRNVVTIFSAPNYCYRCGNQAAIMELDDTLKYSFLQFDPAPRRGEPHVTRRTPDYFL
molecule,measurement,setting,value
MC-LF [Compound 9],"IC50 relative to MC-LR (2), fold higher","[1]; PP2A assay, MC-LF vs. MC-LR, ref 21 (Ikehara et al.)",3 fold
same,IC50,[1]; ref 21 (Ikehara et al.),96 pM
"C=C1C(=O)N[C@H](C)C(=O)N[C@@H](CC(C)C)C(=O)N[C@@H](C(=O)O)[C@H](C)C(=O)N[C@@H](CCCNC(=N)N)C(=O)N[C@@H](/C=C/C(C)=C/[C@H](C)[C@H](Cc2ccccc2)OC)[C@H](C)C(=O)N[C@@H](C(=O)O)CCC(=O)N1C [Compound 2, MC-LR] (R[Adda][d(γGlu)][NMeDha][dA]L[dAsp(3S-Me)]-OH; lactam N-7)",IC50 (PP2A inhibition),[2],0.62 ng/mL
same,IC50,[2],620 pM
same,IC50,[1],32 pM
"C=C1C(=O)N[C@H](CC(C)C)C(=O)N[C@@H](CC(C)C)C(=O)N[C@@H](C(=O)O)[C@H](C)C(=O)N[C@@H](Cc2ccc(O)cc2)C(=O)N[C@@H](/C=C/C(C)=C/[C@H](C)[C@H](Cc2ccccc2)OC)[C@H](C)C(=O)N[C@@H](C(=O)O)CCC(=O)N1C [Compound 1, [D-Leu^1]MC-LY] (Y[Adda][d(γGlu)][NMeDha][dL]L[dAsp(3S-Me)]-OH; lactam N-7)",IC50 (PP2A inhibition),[2],0.80 ng/mL
same,Potency in PP2A inhibition assay relative to MC-LR (2),[2],essentially the same as for MC-LR (2)
same,IC50,[2],760 pM
